Reference: PubChem BioAssay AID179 (DTP/NCI, 2004)
Values joined by “and” are separate entries in the source; they are usually repeats but may differ in a detail not shown here. Identical values can stand only once. Active and inactive are the calls of the source.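 How the source made its calls: active means compounds giving half or more protection of infected cells from virus-caused growth loss, again on retest; inactive means the rest.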 Where a SMILES comes first, the peptide text is derived from it. [ ]: non-standard residue; d: D form. The star is where a group is joined. ξ: configuration not given here. Bz = O=C(c1ccccc1)*; ξC = NC(CS)C(=O)O

Test system: CEM cells HIV-1 protection, formazan growth assay
Experiment: NCI AIDS Antiviral Assay
Conditions: for IC50: measured here: growth of uninfected CEM cells
Summary of the method: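 Soluble formazan readout of cell growth; CEM cells ± HIV-1; 5 drug concs. ≥50% protection → retest; ≥50% again = moderately active; reproducible 100% = confirmed active.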

SMILES	EC50 [µM]	IC50	outcome
CC1CCC2(C(=O)O)CCC3(C)C(=CCC4C5(C)CCC(O)C(C)(C)C5CCC43C)C2C1C (stereo not given)	> 200	14.8 µM	–
O=[N+]([O-])C1(C2([N+](=O)[O-])CCCC2)CCCC1	44.7	110 µM	–
CN1C(=O)c2ccccc2Cc2c(NCc3ccccc3)ncnc21	> 89.1	19.1 µM	–
COC1=CC(=O)c2nccc(C)c2C1=O	–	–	inactive
O=C(Cc1ccccc1)NNc1nc(NNC(=O)c2ccncc2)nc(Nc2cccc(Cl)c2)n1	> 200	> 200 µM	–
N#C/C(=C\c1cc(O)c(O)c(O)c1)C(=O)NCCCCNC(=O)/C(C#N)=C/c1cc(O)c(O)c(O)c1	> 200	61.7 µM	–
CCCCC(=O)NS(=NC(=O)c1ccccc1)C(Cl)(Cl)Cl (stereo not given)	> 200	> 200 µM	–
Cc1cc(N(CCC#N)CCC#N)ccc1N=Nc1ccc(C(=O)O)cc1	> 100	> 100 µM	–
Clc1cccc(-c2sc(-c3cccs3)cc2Cc2cccs2)c1	> 200	141 µM	–
O=C(NC1C=Nc2ccccc2NC1=O)c1ccccc1Cl (stereo not given)	> 115	97.7 µM	–
CCCCCCCC1=NN(c2ccc(S(=O)(=O)O)cc2)C(=O)C1N=O (stereo not given)	> 200	> 200 µM	–
CC(=O)NNc1nc(C)c(C(=O)NNC(=O)C(=O)Nc2ccc(Cl)cc2Cl)s1	–	–	inactive
Cc1ccnc2c1C(=O)C(=O)C=C2N1CCOCC1	–	–	inactive
CSCCCS/C1=C/CCCCCCCCCC1	> 200	> 200 µM	–
CC(C)c1cccc(C(C)C)c1NC(=O)/C(Cc1nc2ccc(Cl)cc2[nH]c1=O)=N\NC(=O)C[N+](C)(C)C	> 162	> 162 µM	–
Cc1cc(Cl)ccc1Nc1nc2c(s1)C(=O)c1ccccc1C2=O	–	–	inactive
NCCCN(CCCN)CCN(CCN(CCCN)CCCN)CCN(CCCN)CCCN	> 200	57.5 µM	–
CC1CN=C(Nc2ccccc2)S1 (stereo not given)	> 200	> 200 µM	–
Nc1nc2c(N)cc(C(F)(F)F)cc2nc1-c1ccccc1	> 17	> 17 µM	–
CCc1cccc(C)c1NC(=O)CC1C(=O)Nc2ccccc2S1=O (stereo not given)	–	–	inactive
COc1ccc2c(c1)C=CC1OC(C(C)=O)(C(C)=O)C(C=O)=CN21 (stereo not given)	> 79.4	38.9 µM	–
COc1ccc(Cc2nnc(Nc3ccc(Br)cc3)[nH]c2=O)cc1OC	> 200	33.9 µM	–
CC[N+](C)(CC)CCC[N+]12CCC(CC1)CC2	> 631	> 631 µM	–

SMILES	EC50 [µM]	IC50	outcome
NNC(=O)NNC(=O)NN	> 200	> 200 µM	–
CCOC(=O)c1noc(Oc2ccc(Cl)cc2Cl)n1	> 44.7	25.1 µM	–
CN1CCN(CC(=O)Nc2cccc3ccccc23)CC1	> 200	> 200 µM	–
COC(=O)c1cc2c(s1)C(=O)c1ccccc1-2	> 2.24	> 2.24 µM	–
NC(N)=NCCN1CC2CCC(CC2)C1	61.7	151 µM	–
NC1=NC2(O)c3ccccc3C(=O)C2(O)N1 (stereo not given)	> 45.7	28.8 µM	–
Cc1cc(C)c(S(=O)(=O)N(CCCCN)OCCCN)c(C)c1	> 200	28.2 µM	–
COC(=O)[C@H](C)N(C)C(=O)[C@H](C)N1[C@@H](c2ccccc2)COC1(C)C	> 200	> 200 µM	–
O=c1[nH]cnc2sc(Nc3ccccc3)nc12	–	–	inactive
CCN1C(=O)c2ccccc2C1(O)c1ccc(Cl)cc1 (stereo not given)	> 200	151 µM	–
Cc1cc2oc3ccccc3c(=O)c2c(C)c1Cl	> 28.2	> 28.2 µM	–
COc1ccc(NC(=S)N/N=C/c2c(C)n(C)n(-c3ccccc3)c2=O)cc1	> 200	115 µM	–
CCn1c(C)nc([N+](=O)[O-])c1Sc1ncc[nH]1	> 977	17.8 µM	–
COc1cc2oc3cc(OC)c(OC)c(CC=C(C)C)c3c(=O)c2c(O)c1CC=C(C)C	> 30.9	> 30.9 µM	–
Nc1nc(Cl)cc(NCC2(CO)CCCCC2)n1	> 200	105 µM	–
CCOC(=O)[C@@H]1ON2O[C@H](OC3CCCCC3c3ccccc3)C[C@H]3OC(=O)[C@@H]1C32 (stereo not given in full)	> 200	117 µM	–
O=C1Nc2cc(Cl)ccc2C(=O)N2CCC[C@@H]12	> 200	> 200 µM	–
C1CCN(c2nsc(N3CCCCC3)n2)CC1	–	–	inactive
CC(=O)OCC1=C(C)C[C@H]([C@@H](COC(C)=O)C2CCC3C4C[C@H]5O[C@]56CC=CC(=O)[C@]6(C)C4CC[C@@]32C)OC1=O (stereo not given in full)	> 200	0.135 µM	–
CC/C(Cl)=N\OC(=O)NCc1ccc(F)cc1	> 20	4.47 µM	–
Cc1cccc(C(=O)c2ccccc2)c1C(=O)O	> 200	> 200 µM	–
C=C(C(=C)P(=S)(c1ccccc1)c1ccccc1)P(=S)(c1ccccc1)c1ccccc1	> 26.9	> 26.9 µM	–
NCCn1ccc(NC(c2ccccc2)(c2ccccc2)c2ccccc2)nc1=O	> 91.2	45.7 µM	–

SMILES	EC50 [µM]	IC50	outcome
COC(=O)C(CS)NC(=O)CNC(=O)c1ccccc1 (stereo not given) (Bz-Gly-[ξC]-OMe)	> 851	46.8 µM	–
OC1CN=C2C=CC=CN2C1 (stereo not given)	> 200	> 200 µM	–
C=CS(=O)(=O)CCN1CC1	> 200	> 200 µM	–
C[C@@](O)(/C=C/[C@H]1CC=CC(=O)O1)[C@@H](C[C@@H](O)\C=C/C=C\C=C\CO)OP(=O)(O)O	–	–	inactive
COc1ccc(C(SCC(N)C(=O)O)(c2ccc(OC)cc2)c2ccc(OC)cc2)cc1 (stereo not given)	> 200	31.6 µM	–
CCC1(CC)c2ccccc2C(CC)(CC)[N+]1(C)C	> 200	85.1 µM	–
Cc1cn(C2CC(N=[N+]=[N-])C(CO)O2)c(=O)nc1N (stereo not given)	> 200	> 200 µM	–
O=Cn1c2ccccc2c2ccccc21	> 200	170 µM	–
CCOC(=O)C(Cc1c(-c2[nH]c3ccccc3c2CC(NC(=O)CNC(C)=O)C(=O)OCC)[nH]c2ccccc12)NC(=O)CNC(C)=O (stereo not given)	> 100	21.9 µM	–
COc1cc(C2SCC(=O)N2NC(=O)c2ccc(NC(C)=O)cc2)cc(OC)c1OC (stereo not given)	> 58.9	> 58.9 µM	–
CCOC(=O)C[C@H]1C(=O)C[C@@H]2C[C@@H](C)CC(=O)[C@@]21CCC#N	–	–	inactive
C[C@@H]1CC/C=C(/[Si](C)(C)C)C[C@H](C)O1	> 1170	> 1170 µM	–
CCOC1OC(CO[Si](C)(C)C(C)(C)C)C(O)CC1n1ccc(=O)[nH]c1=O (stereo not given)	> 200	31.6 µM	–
N#Cc1c(-c2ccco2)cc(-c2ccc(N)cc2)[nH]c1=O	> 25.7	> 25.7 µM	–
COc1ccc(C(=O)C(C(=O)CC(=O)Nc2cccc(C(F)(F)F)c2)c2ccc(OC)cc2)cc1 (stereo not given)	> 14.8	> 14.8 µM	–
Fc1c(F)c(-c2c(F)c(F)c(S)c(F)c2F)c(F)c(F)c1S	–	–	inactive
COc1cc(-c2c(C(C)=O)c(-c3ccccc3)n(C3OC(COC(C)=O)C(OC(C)=O)C(OC(C)=O)C3OC(C)=O)c(=S)c2C#N)ccc1O (stereo not given)	> 200	74.1 µM and 45.7 µM	–
COc1ccc(N=C2C(=S)N(c3ccc(OC)cc3)/C(=N/S(=O)(=O)c3ccccc3)N2c2ccccc2)cc1	> 20	0.389 µM	–
CC1(C)CC(=O)C2=C(C1)Nc1ccccc1NC2c1ccc([N+](=O)[O-])cc1 (stereo not given)	> 200	29.5 µM	–
Oc1cc(O)c2c(c1)OC(c1ccc(O)c(O)c1)C(OC1(c3cc(O)c(O)c(O)c3)Oc3cc(O)cc(O)c3C(O)C1O)C2 (stereo not given)	> 200	11.5 µM	–
CCOP(=O)(OCC)C(Nc1ccc(Cl)cc1)c1ccc(F)cc1 (stereo not given)	–	–	inactive
Cc1cc(O)ccc1N=O	> 200	3.39 µM	–
O=C(NS(=O)(=O)Nc1ccccc1)OCc1ccccc1	> 200	> 200 µM	–

SMILES	EC50 [µM]	IC50	outcome
CC(=O)OC1=c2ccccc2=C(O)C2C1C=NN2C(C)=O (stereo not given)	> 200	87.1 µM	–
Cn1ccc(C(=O)NCCCCCNC(=O)c2ccn(C)c(=O)c2O)c(O)c1=O	> 200	> 200 µM	–
CCOC(=O)c1nc2ccc(C(F)(F)F)cc2nc1NCc1ccc(OC)c(OC)c1	> 200	85.1 µM	–
COC(=O)c1c(C)c2c(c(C)c1C(=O)OC)-c1c(C)ccc3ccc(C)c-2c13	> 100	3.72 µM	–
CCOC(=O)C1(Cc2ccc3c(c2)CCC3)Cc2cc3c(cc2C1)CCC3	> 200	15.5 µM	–
O=C1C(Cl)C(c2ccccc2Cl)N1n1cnc2ccccc2c1=O (stereo not given)	> 14.5	> 14.5 µM	–
CC1(C)C2CCC13CS(=O)(=O)N1O[C@]13C(=O)O2 (stereo not given in full)	> 195	> 195 µM	–
CN(C)C(=O)OC1C(=O)N(C)c2ccc(Cl)cc2C2(c3ccccc3)N1C2(Cl)Cl (stereo not given)	> 200	10.7 µM	–
O=C1/C(=C/c2ccccc2)CCCc2ccccc21	> 200	21.4 µM	–
c1cc(C[S+]2CCCC2)oc1C[S+]1CCCC1	> 200	102 µM	–
COC(=O)[C@@H](NS(=O)(=O)CC12CCC(CC1)C2(C)C)C(C)(C)C	> 200	> 200 µM	–
[Cl][Sn]([c]1ccccc1)([c]1ccccc1)[c]1ccccc1	–	–	inactive
COC(=O)C1CCC(=O)N1CN(C(C)=O)c1ccccc1Cl (stereo not given)	> 200	> 200 µM	–
COC1OC(C(=O)O)C2OC(C)(C)OC12 (stereo not given)	> 200	> 200 µM	–
Nn1c(=O)[nH]c2ncn(Cc3ccccc3)c2c1=O	> 200	> 200 µM	–
CCOC(=O)c1cc(C2(O)CCN(Cc3ccccc3)C2=O)c(-c2cc(C)no2)[nH]1 (stereo not given)	> 200	38.9 µM	–
CCOC(=O)/C(=C/c1ccncc1)C(=O)c1ccccc1	> 129	> 129 µM	–
CSC1CC2C(CC1(C)SC)C2(C)C (stereo not given)	> 155	> 155 µM	–
CC1=C/C(=N\N(C)C)C(C(O)(C(F)(F)F)C(F)(F)F)C(C)(C)C1 (stereo not given)	> 200	102 µM	–
Cc1cc(C(=O)CSC(=S)SC(C)(C)C)ccc1Cl	> 30.2	> 30.2 µM	–
CCOC(=O)c1c(N)sc2c1C(C(=O)OCC)CC2 (stereo not given)	> 200	174 µM	–
CCc1ccc(/C(C#N)=C/c2ccc(OC)cc2)cc1	> 200	3.98 µM	–
